Values after ≈ are worked out from the molar mass of the structure shown.
Legend:
[1] = biological target: Human immunodeficiency virus type 1 reverse transcriptase (Human immunodeficiency virus 1) (UniProt Q72547); assay: Inhibition of HIV1 reverse transcriptase
[2] = biological target: Human immunodeficiency virus type 1 reverse transcriptase (Human immunodeficiency virus 1) (UniProt Q72547); assay: Inhibition of HIV1 reverse transcriptase at 200 ug/mL

| ED50 [1] [µg/mL] | inhibition [2] [%] | SMILES |
| --- | --- | --- |
| 3 (≈ 4.32 µM) |  | COc1cc(O)c2c(=O)c3c(O)c(-c4c(O)c([C@@H]5O[C@H](CO)[C@@H](O)[C@H](O)[C@H]5O)c(O)c5c(=O)c6cc(O)c(O)cc6oc45)cc(O)c3oc2c1 |
| 30.9 (≈ 42.9 µM) | 99.8 | COc1cc(O)c2c(=O)c3c(O)c(-c4c(O)c([C@@H]5O[C@H](CO)[C@@H](O)[C@H](O)[C@H]5O)c(O)c5c(=O)cc(-c6ccc(O)c(O)c6)oc45)cc(O)c3oc2c1 |

Reference: ChEMBL document CHEMBL1149036, “Swertifrancheside, an HIV-reverse transcriptase inhibitor and the first flavone-xanthone dimer, from Swertia franchetiana” (J Nat Prod, 1994)
